3 molecules from patent EP0214743B1, “Use of quinoline derivatives in the manufacture of medicaments for the treatment of cerebrovascular disorders and cerebral senility” (BEECHAM GROUP PLC, priority 1985, dated 1987) can be followed below.

In assay [1] the test system is Triethyltin-induced cerebral oedema. The assay is described as follows: Triethyltin-induced cerebral oedema in the rat. The format is in vivo. The note with it: twice daily for 5 days, Wistar rats intoxicated with triethyltin chloride 2 mg/kg. The procedure: 1. Triethyltin-induced cerebral oedema in the rat.
The cerebral oedema is induced by oral administrations repeated for 5 consecutive days - one administration per day - of triethyltin chloride at a dose of 2 mg/kg. The test compound is also administered orally twice daily as aqueous solution or suspension (1ml/100g body-weight); these administrations are given during the 5 days of intoxication with tin. Three groups of 10 male specific pathogen-free (SPF) Wistar rats of 280 ± 10g body-weight are used: • 1 control group • 1 group intoxicated with triethyltin • 1 group intoxicated with triethyltin and treated with the studied compound. The rats are killed on the evening of the fifth day; the brain is removed, weighed fresh and after desiccation to constant weight and the water content of each brain is calculated: [H₂O] = fresh weight - dry weight. [formula] The following are then calculated: • the mean water content (M ± Sm%) of each group; • the protection index P due to the administered compound: [formula] The significance is evaluated by the Mann-Whitney test.

Assay [2] concerns rat cortex. The experiment in a line: Effect of test compound on oxygen tension (pO₂) of rat cortex. It is filed as in vivo. Particulars: for Increase in pO₂ (torr): normoxic cortex, normal anaesthetized rats; for Ischaemic Cortex Increase in pO₂ (torr) (mean ± sem): both carotid arteries ligated 3 weeks previously, N=5. The procedure: 2. Effect of test compound on oxygen tension (pO₂) of rat cortex.
Male rats (280-350g) were anaesthetized with sodium-thio pentone (100 mg/kg i.p.). The arterial blood pressure was recorded from a femoral artery.
The cranium was opened with a trephine (0.6 mm) above the praecentral cortex. The dura mata was carefully removed and a multiwire oxygen sensitive electrode was placed on the cortex.
The electrode current was continuously recorded.
After a stabilisation period the test compound was administered. The change in the cortical pO₂, produced by compound administration, was calculated for each animal.
These measurements were performed in normal animals and in animals in which both carotid arteries had been ligated 3 weeks previously in order to induce cortical ischaemia.

Marks after values point to notes of the source that are not given here.

Turning to `CC1(C)Nc2ccc(C#N)cc2[C@@H](N2CCCC2=O)[C@@H]1O` (relative stereo) [Compound A, trans-2,2-dimethyl-6-cyano-4-(2-oxo-1-pyrrolidinyl)-1,2,3,4-tetrahydroquinolin-3-ol], the “% inhibition of cerebral oedema formation” value (from here on “% inhibition”) in assay [1] (2x2.5 mg/kg p.o.) is given as 30* %. The “Increase in pO₂ (torr)” value worked out at 2.1 ± 2.0 torr in assay [2] (0.4 mg/kg i.v., N=3) and 4.1 ± 0.9 torr in assay [2] (0.8 mg/kg i.v., N=2). Moreover, the figures for the “Ischaemic Cortex Increase in pO₂ (torr) (mean ± sem)” value in assay [2] (0.5 mg/kg i.v.) and in assay [2] (1.0 mg/kg i.v.) were 0.9 ± 0.9 torr and 1.9 ± 1.9 torr, respectively. Besides, in assay [2] (summary in words of Table 2), the “effect on pO₂ in the rat normoxic and chronic ischaemic cortex” value was “increases pO₂”.

For `CC1(C)C=C(N2CCCC2=O)c2cc(C#N)ccc2N1` [Compound C, 6-Cyano-2,2-dimethyl-4-(2-oxo-1-pyrrolidinyl)-1,2-dihydroquinoline], the “% inhibition” value in assay [1] (2x1 mg/kg p.o.) was 53.3** %; in assay [1] (2x12.5 mg/kg p.o.), 100** %.

As to `CC1(C)C=C(N2CCCC2=O)c2cc(Br)ccc2N1` [Compound B, 6-Bromo-2,2-dimethyl-4-(2-oxo-1-pyrrolidinyl)-1,2-dihydroquinoline], the “% inhibition” value was 41.4** % in assay [1] (2x12.5 mg/kg p.o.) and 100** % in assay [1] (dosage cell empty in this row, p.o.).
